Values quoted from earlier work in patent US20090221469A1, “USE OF SOY KEFIR POWDER FOR REDUCING PAIN, BLOOD PRESSURE AND INFLAMMATION” (KCLM RESEARCH IN NUTRITION INC., priority 2006, published 2009).

Experiments:
[1] = test system: patients with neuralgia or moderate to severe nonmalignant pain; details: treatment of neuralgia (Stacey et al., 2004)

Compound | SF-36 improvement of mean scores for bodily pain [1] [points] | half-lives [h]
NCC1(CC(=O)O)CCCCC1 [gabapentin] | 9.2 | 
isoflavones |  | 4 to 8
